Entries after “also recorded” stand apart in the source; their conditions may differ. Where two headings read alike, the source gives them in different places. Values belong to the compound of their own block, whether it stands above or below them.
How the values were obtained:
[1] = tested on: serine hydrolases in PC3 cells; test: ABPP-SILAC, PC3 cells treated in situ, other SH targets; assay type: cell-based, human; details: 4 h in situ
Experimental: (§1) In situ inhibitor treatments of human cell lines were performed as described previously (Hsu et al., J Med Chem 56, 8270-8279, 2012). Briefly, PC3 or transfected HEK293T cells were grown to confluency in serum-containing media (RPMI or DMEM, respectively). The culture media was then removed and replaced with fresh media containing DMSO or inhibitor at the desired concentration and incubated for 4 hours in a tissue culture incubator (37° C., 5% CO2). Cells were then washed with PBS, harvested, washed with PBS once more, and lysed with a probe sonicator.
The activity and selectivity of dual ABHD3/4 and ABHD4-preferring inhibitors in PC3 cells by ABPP-SILAC was assessed. Isotopically heavy and light PC3 cells were treated in situ with inhibitor (Compound 37 (1 μM) or Compound 38 (0.5 μM)) or DMSO for 4 h and then lysed and processed for ABPP-SILAC analysis.
Isotopically heavy- and light-labeled PC3 cells were treated with Compound 37 (1 μM) or DMSO for 4 h, respectively, lysed, and then treated Compound 39 (5 μM, 1 h). […] Among the handful of additional SH targets of Compound 37 were ABHD6 and PLA2G7, which were expected based on our ABPP-SILAC studies with FP-biotin (see FIG. 9), and protein-palmitoyl thioesterase 1 (PPT1), which was inhibited by more than 90%. […] Accordingly, PPT1 was not detected in our previous ABPP-SILAC studies with FP-biotin (see FIG. 9). The selective enrichment of PPT1 by Compound 39 was confirmed by performing a probe-versus-probe ABPP-SILAC study, where heavy and light PC3 proteomes were treated with FP-biotin (2.5 μM, 1 h) and Compound 39 (5 μM, 1 h), respectively. PPT1, along with two additional SHs LIPA and DDHD2, were preferentially enriched by Compound 39 over FP-biotin, while most of the other SHs were more strongly enriched by FP-biotin (see FIG. 13). A handful of SHs corresponding mostly to enzymes that were identified in our ABPP-SILAC studies as targets of Compound 37 (see FIGS. 9 and 12), were equivalently enriched by Compound 39 and FP-biotin (see FIG. 13).
To evaluate the broader selectivity of Compound 26 and Compound 34 across the SH class, heavy and light isotopically-labeled PC3 cells were treated with inhibitor [Compound 34 (1 μM); or Compound 26 (1 or 0.1 μM); 4 h) and DMSO, respectively, followed by ABPP-SILAC analysis with either the FP-biotin probe or the Compound 39 probe. […] Conversely, Compound 34 inhibited >90% of ABHD4 activity, as measured with either the FP-biotin probe or the Compound 39 probe, and cross-reacted with four additional targets—ABHD6, PAFAH2, PLA2G7, and PLA2G15.

PPT1 = biological target: T1, PPT1 (Homo sapiens, UniProt P50897); test: In situ inhibition of hPPT1 in transfected HEK293T cells, competitive ABPP with Compound 39 probe; assay type: cell-based; design: expressed in transfected cells; host or cells: HEK293T
T1 sequence (P50897 28-306): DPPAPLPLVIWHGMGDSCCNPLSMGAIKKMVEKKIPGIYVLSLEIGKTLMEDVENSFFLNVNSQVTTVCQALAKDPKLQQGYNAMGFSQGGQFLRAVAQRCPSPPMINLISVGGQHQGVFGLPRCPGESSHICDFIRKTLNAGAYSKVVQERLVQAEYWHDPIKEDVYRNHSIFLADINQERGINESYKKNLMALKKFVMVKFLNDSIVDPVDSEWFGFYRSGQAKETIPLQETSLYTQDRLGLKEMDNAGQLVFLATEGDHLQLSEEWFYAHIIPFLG
Experimental: HEK293T cells were seeded at 2×10^5 per well on 6 well plates and grown for 48 h. They were then transfected with mABHD3 (pCMV-Sport6), hABHD4 (pcDNA3.1/myc-his), hPPT1 (pCMV6-XL5), or hPPT1 S115A (pCMV6-XL5), by incubating 0.5 μg of DNA with 3 μL of PEI MAX (1 mg/mL, Polysciences, Inc) in serum-free DMEM for 30 min, then adding them to cells. After 48 h cells were either treated with compound in situ, as described above, or harvested for in vitro studies. The […] PPT1 mutation was introduced using QuikChange II Site Directed Mutagenesis Kit (Agilent) with the following primers: […]
as §1
This possibility was explored by treating HEK293T cells transfected with human PPT1 (hPPT1) with Compound 37 (5 μM, 4 h pre-treatment) or DMSO followed by cell lysis and treatment with Compound 39 (5 μM, 1 h). A strong, but diffuse Compound 37-sensitive, Compound 39-labeled protein band was detected by gel-based ABPP in hPPT1-transfected, but not mock-transfected cell lysates (see FIG. 14), and this diffuse signal was compressed to a tight, faster-migrating band matching the predicted molecular weight of PPT1 following treatment with the glycosidase PNGaseF (see FIG. 14). Western blotting with an anti-PPT1 antibody confirmed a similar migration pattern for hPPT1 protein in transfected cell lysates (see FIG. 14, bottom panel).
A structurally diverse panel of N-hydroxy bicyclic hydantoin carbamates were assayed at 2 or 0.2 μM for in situ inhibition of hPPT1 in transfected HEK293T cells.

human LYPLA2 = biological target: T2, human LYPLA2 (Homo sapiens, UniProt O95372); test: IC50 by gel-based competitive ABPP in vitro, soluble HeLa cell proteome; assay type: biochemical
T2 construct: endogenous human LYPLA1/2 in a HeLa soluble proteome; endogenous in cells; host or cells: HeLa (soluble proteome in vitro; cultured cells in situ)
T2 sequence (O95372 whole entry): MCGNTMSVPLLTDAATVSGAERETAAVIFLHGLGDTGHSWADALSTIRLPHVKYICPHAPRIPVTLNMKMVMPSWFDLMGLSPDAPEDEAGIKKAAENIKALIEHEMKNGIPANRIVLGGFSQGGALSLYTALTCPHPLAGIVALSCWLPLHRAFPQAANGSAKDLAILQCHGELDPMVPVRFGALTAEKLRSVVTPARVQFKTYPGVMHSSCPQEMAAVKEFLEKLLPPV

[2] = hPPT1-transfected HEK293T cells, in situ, read-out: hPPT1 (in situ), IC50
[3] = second value of the cell, read-out: hLYPLA1/2 in vitro potency (IC50): hLYPLA2

Structure (SMILES): O=C(ON1C(=O)C2CN(Cc3ccc(Oc4ccccc4)cc3)CCN2C1=O)N1CCC(c2ccccc2)CC1 (stereo not shown) [Compound 38, 1,3-dioxo-7-(4-phenoxybenzyl)hexahydroimidazo[1,5-a]pyrazin-2(3H)-yl 4-phenylpiperidine-1-carboxylate]
additional targets among 44 serine hydrolases ([1]; 0.5 μM, PC3, FP-biotin): LIPE and PLA2G7 and ABHD6 and CES2

IC50 (PPT1; [2]): 500 nM
IC50 (human LYPLA2; HeLa cell lysates, FP-Rh, read-out: human LYPLA2 IC50 in vitro): 245 nM
Structure (SMILES): O=C(ON1C(=O)C2CN(C(=O)N3CCOCC3)CCN2C1=O)N1CCC(CCc2ccc(Cl)cc2)CC1 (stereo not shown) [Compound 1, 7-(morpholine-4-carbonyl)-1,3-dioxohexahydroimidazo[1,5-a]pyrazin-2(3H)-yl 4-(4-chloro-phenethyl)piperidine-1-carboxylate]

IC50 (human LYPLA2; [3]): 1830 nM
Structure (SMILES): C#Cc1ccc(CCC2CCN(C(=O)ON3C(=O)[C@@H]4CN(C(=O)N5CCOCC5)CCN4C3=O)CC2)cc1 [Compound 48, (S)-7-(morpholine-4-carbonyl)-1,3-dioxo-hexahydroimidazo[1,5-a]pyrazin-2(3H)-yl 4-(4-ethynylphenethyl)piperidine-1-carboxylate]

IC50 (PPT1; [2]): 3900 nM
Structure (SMILES): O=C(ON1C(=O)C2CN(Cc3ccc(Oc4ccccc4)cc3)CCN2C1=O)N1CCOCC1 (stereo not shown) [Compound 34, 1,3-dioxo-7-(4-phenoxybenzyl)hexahydroimidazo[1,5-a]pyrazin-2(3H)-yl morpholine-4-carboxylate]
additional cross-reacting targets ([1]; 1 μM, PC3): ABHD6; also recorded: PAFAH2; also recorded: PLA2G7; also recorded: PLA2G15

in situ inhibition of hPPT1 at 200 nM (PPT1; 200 nM, transfected HEK293T cells): complete inhibition
IC50 (PPT1; gel-based competitive ABPP, read-out: in situ IC50 for recombinant PPT1): 100 nM
Structure (SMILES): COc1ccc(N2CCN(C(=O)ON3C(=O)C4CN(CC5CCN(Cc6ccccc6)CC5)CCN4C3=O)CC2)cc1 (stereo not shown) [Compound 26, 7-((1-benzylpiperidin-4-yl)methyl)-1,3-dioxohexahydroimidazo[1,5-a]pyrazin-2(3H)-yl 4-(4-methoxyphenyl)piperazine-1-carboxylate]
cross-reacting SHs of >40 quantified ([1]; 1 or 0.1 μM, PC3): ABHD6 and CPVL

IC50 (human LYPLA2; [3]): 1430 nM
Structure (SMILES): C#Cc1ccc(CCC2CCN(C(=O)ON3C(=O)[C@H]4CN(C(=O)N5CCOCC5)CCN4C3=O)CC2)cc1 [Compound 49, (R)-7-(morpholine-4-carbonyl)-1,3-dioxo-hexahydroimidazo[1,5-a]pyrazin-2(3H)-yl 4-(4-ethynylphenethyl)piperidine-1-carboxylate]

hPPT1 (in situ), % @ 2 μM (PPT1; 2 μM, hPPT1-transfected HEK293T cells, in situ): 100% @ 2 μM
Structure (SMILES): COc1ccc(N2CCN(C(=O)ON3C(=O)C4CN(Cc5ccc(Oc6ccccc6)cc5)CCN4C3=O)CC2)cc1 (stereo not shown) [Compound 37, 1,3-dioxo-7-(4-phenoxybenzyl)hexahydroimidazo[1,5-a]pyrazin-2(3H)-yl 4-(4-methoxyphenyl)piperazine-1-carboxylate]
reaction with hPPT1 / blockade of Compound 39 labeling (PPT1; 5 μM, 4 h pre-treatment, hPPT1-transfected HEK293T cells): blocked; also recorded: reacted with PPT1
SHs inhibited in PC3 cells ([1]; 1 μM, Compound 39 probe): ABHD4; also recorded: ABHD6; also recorded: PLA2G7
